One assay has as its target T1, FLT-3 (Homo sapiens, UniProt P36888).
T1 sequence (P36888 27-993): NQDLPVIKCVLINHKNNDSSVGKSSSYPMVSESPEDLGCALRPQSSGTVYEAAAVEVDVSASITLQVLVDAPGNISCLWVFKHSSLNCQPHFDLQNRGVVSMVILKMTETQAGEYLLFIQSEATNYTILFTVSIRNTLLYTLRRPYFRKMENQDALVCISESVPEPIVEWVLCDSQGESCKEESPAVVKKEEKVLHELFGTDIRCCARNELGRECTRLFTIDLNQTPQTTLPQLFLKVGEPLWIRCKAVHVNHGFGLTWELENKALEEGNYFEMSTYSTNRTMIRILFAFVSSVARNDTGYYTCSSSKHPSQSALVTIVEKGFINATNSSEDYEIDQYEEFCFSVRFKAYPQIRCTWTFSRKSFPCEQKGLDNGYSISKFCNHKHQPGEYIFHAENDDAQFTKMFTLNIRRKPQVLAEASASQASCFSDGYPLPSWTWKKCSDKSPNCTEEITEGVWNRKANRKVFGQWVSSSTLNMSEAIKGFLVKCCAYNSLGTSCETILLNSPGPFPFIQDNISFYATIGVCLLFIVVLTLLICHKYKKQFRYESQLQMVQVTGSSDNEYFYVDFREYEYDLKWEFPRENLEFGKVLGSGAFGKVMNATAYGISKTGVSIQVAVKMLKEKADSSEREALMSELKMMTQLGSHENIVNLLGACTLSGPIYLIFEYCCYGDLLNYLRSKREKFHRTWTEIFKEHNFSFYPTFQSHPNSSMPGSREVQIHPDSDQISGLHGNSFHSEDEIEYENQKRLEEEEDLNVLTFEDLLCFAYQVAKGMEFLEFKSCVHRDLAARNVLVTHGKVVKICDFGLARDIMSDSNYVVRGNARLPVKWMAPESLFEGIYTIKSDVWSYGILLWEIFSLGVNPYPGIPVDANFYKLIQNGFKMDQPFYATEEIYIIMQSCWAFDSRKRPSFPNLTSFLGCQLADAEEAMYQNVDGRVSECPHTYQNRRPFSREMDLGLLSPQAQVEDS
In words: FLT-3 inhibition assay, radiometric filter-binding. The assay is classed as biochemical.

In another assay the test system is Colo205 cells. In words: Analysis of cell proliferation and viability. The assay is classed as cell-based. The settings on record: Homo sapiens, COLO 205, Colo205 cells, read-out: IC50 value.
Another assay has as its target T2, Aurora-2 (Aurora A) (Homo sapiens, UniProt O14965).
T2 sequence (O14965 1-403): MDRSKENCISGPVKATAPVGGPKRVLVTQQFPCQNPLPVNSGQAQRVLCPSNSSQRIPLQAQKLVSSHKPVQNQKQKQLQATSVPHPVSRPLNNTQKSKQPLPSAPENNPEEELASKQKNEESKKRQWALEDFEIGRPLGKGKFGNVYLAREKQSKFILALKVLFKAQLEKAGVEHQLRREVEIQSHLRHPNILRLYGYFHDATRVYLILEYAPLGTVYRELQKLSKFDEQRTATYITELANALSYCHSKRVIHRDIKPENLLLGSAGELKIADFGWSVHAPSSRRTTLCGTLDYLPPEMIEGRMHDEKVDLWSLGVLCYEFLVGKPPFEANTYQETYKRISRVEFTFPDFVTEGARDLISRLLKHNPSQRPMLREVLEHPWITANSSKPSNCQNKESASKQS
In words: Aurora-2 (Aurora A) inhibition assay, coupled enzyme. The assay is classed as biochemical. The method in brief: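 These rates came from NADH consumption coupled through pyruvate kinase and lactate dehydrogenase (100 mM Hepes pH 7.5, 10 mM MgCl2, 300 μM NADH). Aurora-2 was present at 40 nM, and the reaction ran at 30 °C after a 10 min preincubation.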

Setting [1] is: read-out: Aurora A kinase Ki value.

Molecules are shown by their SMILES. Where two headings read alike, the source gives them in different places. A value given as a limit tells only on which side of the number the result lay.

On to `Cc1cc(Nc2cc(N3CCC3)nc(Sc3ccc(NC(=O)c4ccc(CN(C)C)cc4)cc3)n2)[nH]n1` [Compound 137], for which the inhibition constant (Ki) on FLT-3 (read-out: FLT-3 Ki value) is 50 to 150 nM; at Aurora-2 (Aurora A) (setting [1]) it was 5 to 200 nM. Also, the IC50 with Colo205 cells (incubated for 96 hours) lay in the range of 50 to 1000 nM.
Regarding `Cc1cc(Nc2cc(N3CCC3)nc(Sc3ccc(C(=O)NCc4ccccc4Cl)cc3)n2)n[nH]1` [Compound 24], the inhibitory constant (Ki) was in the range of 150 to 1000 nM on FLT-3 and 5 to 200 nM on Aurora-2 (Aurora A). Besides, the IC50 in the assay with Colo205 cells (incubated for 96 hours) was > 1000 nM.
Regarding `Cc1cc(Nc2cc(N3CC(F)C3)nc(Sc3ccc(NC(=O)c4ccccc4Cl)cc3)n2)[nH]n1` [Compound 60], the results for the Ki at FLT-3 (read-out: FLT-3 Ki value) and on Aurora-2 (Aurora A) (setting [1]) were 50 to 150 nM and 1 to 5 nM, respectively. Moreover, the IC50 in the assay on Colo205 cells (incubated for 96 hours) fell in the range of 50 to 1000 nM.
For `Cc1cc(Nc2cc(N3CCC3)nc(Sc3ccc(NC(=O)CCC(F)(F)F)cc3)n2)[nH]n1` [Compound 121], the inhibitory constant (Ki) is 50 to 150 nM at FLT-3 (read-out: FLT-3 Ki value) and 1 to 5 nM at Aurora-2 (Aurora A) (setting [1]). Also, in the assay with Colo205 cells (incubated for 72 hours), the IC50 was in the range of 30 to 200 nM.
On to `O=C(CC(F)(F)F)Nc1ccc(Sc2nc(Nc3cc[nH]n3)cc(N3CC(F)(C4CC4)C3)n2)cc1` [Compound 148], for which the Ki on FLT-3 was in the range of 50 to 150 nM; on Aurora-2 (Aurora A) (setting [1]) it was 1 to 5 nM. Besides, the IC50 in the assay with Colo205 cells (incubated for 72 hours) is > 200 nM.
As to `Cc1cc(Nc2cc(N3CC(N4CCOCC4)C3)nc(Sc3ccc(NC(=O)CC(F)(F)F)cc3)n2)[nH]n1` [Compound 199], the inhibition constant (Ki) on FLT-3 was ≤ 50 nM; at Aurora-2 (Aurora A) (setting [1]), ≤ 1 nM. The IC50 in the assay with Colo205 cells (incubated for 72 hours) was ≤ 30 nM.
Regarding `Cc1cc(Nc2cc(N3CC(C)C3)nc(Sc3ccc(NC(=O)c4ccccc4Cl)cc3)n2)n[nH]1` [Compound 39], the Ki at FLT-3 lay within 50 to 150 nM; at Aurora-2 (Aurora A) (setting [1]) it was 1 to 5 nM. The IC50 with Colo205 cells (incubated for 96 hours) lay within 50 to 1000 nM.
Regarding `Cc1cc(Nc2cc(N3CCC3)nc(Sc3ccc(NC(=O)C4CC4(F)F)cc3)n2)[nH]n1` (stereo not drawn) [Compound 112], the figures for the Ki at FLT-3 (read-out: FLT-3 Ki value) and at Aurora-2 (Aurora A) (setting [1]) were ≤ 50 nM and 1 to 5 nM, respectively. The IC50 with Colo205 cells (incubated for 72 hours) is > 200 nM.
For the compound `CCNC(=O)c1ccc(Sc2nc(Nc3cc(C)[nH]n3)cc(N3CCC3)n2)cc1` [Compound 20], the Ki on FLT-3 was 50 to 150 nM; at Aurora-2 (Aurora A), 5 to 200 nM. The IC50 in the assay with Colo205 cells (incubated for 96 hours) was 50 to 1000 nM.
As to `Cc1ccc2cc(Sc3nc(Nc4cc(C)[nH]n4)cc(N4CC(C5CCC(F)C5)C4)n3)ccc2n1` (stereo not drawn) [Compound 198], the results for the inhibition constant (Ki) at FLT-3 and on Aurora-2 (Aurora A) (setting [1]) were 50 to 150 nM and 1 to 5 nM, respectively. The half-maximal inhibitory concentration (IC50) in the assay on Colo205 cells (incubated for 72 hours) is ≤ 30 nM.
As for `Cc1cc(Nc2cc(N3CC(OC(C)(C)C)C3)nc(Sc3ccc(NC(=O)c4ccccc4Cl)cc3)n2)[nH]n1` [Compound 66], the values for the Ki at FLT-3 and on Aurora-2 (Aurora A) were 150 to 1000 nM and ≤ 1 nM, respectively. Moreover, in the assay with Colo205 cells (incubated for 96 hours), the IC50 was 50 to 1000 nM.
The corresponding values for `Cc1cc(Nc2cc(N3CCC3)nc(Sc3ccc(C(=O)NCc4ccccc4)cc3)n2)n[nH]1` [Compound 19] are 150 to 1000 nM, 5 to 200 nM and > 1000 nM.
For the compound `Cc1cc(Nc2cc(N3CC(F)(C4CC4)C3)nc(Sc3ccc4nc(C(F)(F)F)[nH]c4c3)n2)[nH]n1` [Compound 202], the inhibition constant (Ki) on FLT-3 was ≤ 50 nM; on Aurora-2 (Aurora A) (setting [1]), 1 to 5 nM. Further, the IC50 with Colo205 cells (incubated for 72 hours) was in the range of 30 to 200 nM.
As to `CCC(=O)Nc1ccc(Sc2nc(Nc3cc(C)n[nH]3)cc(N3CC(C)(NC(C)(C)C)C3)n2)cc1` [Compound 80], the Ki lay in the range of 50 to 150 nM on FLT-3 (read-out: FLT-3 Ki value) and 1 to 5 nM at Aurora-2 (Aurora A) (setting [1]). Also, in the assay on Colo205 cells (incubated for 96 hours), the IC50 was ≤ 50 nM.
In the case of `COc1ccc(C(=O)Nc2ccc(Sc3nc(Nc4cc(C)n[nH]4)cc(N4CCC4)n3)cc2)cc1` [Compound 117], the Ki on FLT-3 (read-out: FLT-3 Ki value) lay in the range of 150 to 1000 nM; at Aurora-2 (Aurora A) (setting [1]), 1 to 5 nM. The IC50 in the assay with Colo205 cells (incubated for 72 hours) is > 200 nM.
With `CCC(=O)Nc1ccc(Sc2nc(Nc3cc(C)[nH]n3)cc(N3CC(O)C3)n2)cc1` [Compound 15], the Ki on FLT-3 was 50 to 150 nM; on Aurora-2 (Aurora A), 1 to 5 nM. Also, the concentration for half-maximal inhibition (IC50) in the assay with Colo205 cells (incubated for 96 hours) lay within 50 to 1000 nM.
As for `Cc1cc(Nc2cc(N3CCC3)nc(Sc3ccc(NC(=O)c4c(F)cccc4N4CCC4)cc3)n2)n[nH]1` [Compound 8], the Ki on FLT-3 lay within 50 to 150 nM; at Aurora-2 (Aurora A) (setting [1]) it was 1 to 5 nM. Also, the IC50 with Colo205 cells (incubated for 96 hours) was in the range of 50 to 1000 nM.
The corresponding values for `Cc1cc(Nc2cc(N3CCC3)nc(Sc3cccc(NC(=O)c4ccccc4Cl)c3)n2)[nH]n1` [Compound 49] are 150 to 1000 nM, 5 to 200 nM and > 1000 nM.

In general, Ki refers to a measure of affinity in units of concentration, obtained from inhibition or displacement. By IC50 is commonly meant the concentration needed to halve the response being measured.

For the origin of these results see US8637511B2, “Aminopyrimidines useful as kinase inhibitors” (Vertex Pharmaceuticals Incorporated, priority 2005, dated 2014).
